# The supplement of paper PMC10307832
# Columns and labels:
# Test in all cases: relative viability (nuclei count vs DMSO), 5 days (fraction); higher = more cells survive
# [1] = compound: O=C(CCCCCCNC(=O)c1cnc(N(c2ccccc2)c2ccccc2)nc1)NO [Ricolinostat] + Cc1nc(NC(=O)N2CCC[C@H]2C(N)=O)sc1-c1ccnc(C(C)(C)C(F)(F)F)c1 [Alpelisib] (partner 2 µM)
# Procedure, shortened: (§1)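 Lung cancer cell lines in 1536-well plates got either a single drug or a fixed anchor-drug dose together with five library-drug doses (not always all listed) in √10 steps, by pin tool, on the day after seeding. Nuclei were counted after 5 days, and relative viability is the treated-to-vehicle ratio of nuclei counts. Values are medians of duplicate plates.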
# [2] = compound: C1=CC=C(C(=C1)C2=CC=C(C=C2)C3=CSC4=C3C(=C(C(=O)N4)C#N)O)O + Nc1nc2[nH]cc(CCc3ccc(C(=O)N[C@@H](CCC(=O)O)C(=O)O)cc3)c2c(=O)[nH]1 [Pemetrexed] (partner 0.2 µM)
# Procedure, shortened: as §1
# [3] = compound: CC1=CN2C(=O)C=C(N=C2C(=C1)C(C)NC3=CC=CC=C3)N4CCOCC4 [TGX 221] + COc1cc2c(Oc3ccc(NC(=O)C4(C(=O)Nc5ccc(F)cc5)CC4)cc3F)ccnc2cc1OCCCN1CCOCC1 [Foretinib] (partner 0.25 µM)
# Procedure, shortened: as §1
# [4] = compound: CC1=CN2C(=O)C=C(N=C2C(=C1)C(C)NC3=CC=CC=C3)N4CCOCC4 [TGX 221] + CS(=O)(=O)N1CCN(Cc2cc3nc(-c4cccc5[nH]ncc45)nc(N4CCOCC4)c3s2)CC1 [Pictilisib] (partner 1 µM)
# Procedure, shortened: as §1
Cell Line,relative viability ([1]; first compound 0.08 µM),relative viability ([1]; first compound 0.253 µM),relative viability ([1]; first compound 0.8 µM),relative viability ([1]; first compound 2.53 µM),relative viability ([2]; first compound 0.08 µM),relative viability ([2]; first compound 0.253 µM),relative viability ([2]; first compound 0.8 µM),relative viability ([2]; first compound 2.53 µM),relative viability ([2]; first compound 8 µM),relative viability ([3]; first compound 0.08 µM),relative viability ([3]; first compound 0.253 µM),relative viability ([3]; first compound 0.8 µM),relative viability ([3]; first compound 2.53 µM),relative viability ([3]; first compound 8 µM),relative viability ([4]; first compound 0.08 µM),relative viability ([4]; first compound 0.253 µM),relative viability ([4]; first compound 0.8 µM),relative viability ([4]; first compound 2.53 µM),relative viability ([4]; first compound 8 µM)
NCI-H1563,0.916,0.994,0.862,0.857,0.64,0.688,0.774,0.746,0.783,0.855,0.875,0.936,0.836,0.68,0.651,0.622,0.573,0.634,0.638
NCI-H1355,–,0.847,0.795,0.715,1.01,1.12,1.13,1.04,1.11,0.994,0.814,0.984,0.849,0.788,0.444,0.437,0.426,0.362,0.365
NCI-H2228,0.555,0.984,0.722,0.791,0.371,0.454,0.351,0.332,0.367,0.738,0.853,0.787,0.754,0.72,0.348,0.452,0.448,0.282,0.314
LXF-289,0.961,1,1.06,1.01,0.818,0.871,0.909,0.926,0.89,0.974,0.986,1,0.97,0.995,0.789,0.751,0.711,0.746,0.729
NCI-H2085,–,1.04,0.861,0.915,0.838,1.01,0.801,0.886,0.818,1.06,0.845,0.96,0.428,0.401,0.424,0.444,0.439,0.425,0.46
NCI-H2342,–,–,–,–,0.769,0.938,0.713,0.755,0.712,1.03,1.02,1.03,0.903,0.985,–,–,–,–,–
EMC-BAC-2,0.644,0.669,0.768,0.816,0.447,0.618,0.444,0.451,0.418,1.03,0.882,0.882,0.903,0.773,0.535,0.523,0.535,0.471,0.535
IA-LM,0.616,0.819,0.623,0.363,–,–,–,–,–,1.18,1.04,1.08,1.22,1.11,0.276,–,0.423,0.288,0.412
A549,0.537,0.805,0.663,0.631,–,–,–,–,–,1.05,0.917,0.997,1.06,0.801,0.485,0.496,0.46,0.494,0.396
NCI-H3122,0.514,0.942,0.785,0.964,0.19,0.201,0.22,0.213,0.19,0.967,0.931,0.957,0.949,1.01,0.619,0.581,0.635,0.574,0.581
LC-2-ad,0.786,0.853,0.839,0.663,0.268,0.288,0.279,0.306,0.257,0.865,0.85,0.95,0.825,0.751,0.453,–,0.444,0.491,0.473
NCI-H1734,0.469,0.684,0.645,0.721,0.396,0.403,0.462,0.401,0.448,0.781,0.81,0.799,0.732,0.764,0.452,0.41,0.435,0.377,0.456
NCI-H1975,0.582,0.556,–,0.492,0.312,0.288,0.302,0.307,0.295,0.862,0.899,0.965,0.841,0.797,0.282,0.289,0.271,0.229,0.285
NCI-H1650,–,–,–,–,0.339,0.359,0.461,0.33,0.32,0.953,0.751,1.05,0.922,0.639,0.524,0.524,0.645,0.621,0.508
NCI-H1299,1.06,0.99,0.988,0.944,–,–,–,–,–,1.12,1.06,1.1,1.13,1.07,0.74,0.728,0.787,0.654,0.617
SW 900,–,–,–,–,–,0.487,0.453,0.464,0.47,0.682,0.651,0.788,0.546,0.726,–,–,–,–,–
NCI-H1703,–,0.316,0.401,0.377,–,–,–,–,–,0.328,0.275,0.335,0.317,0.337,0.234,0.264,0.251,0.202,0.234
NCI-H522,–,–,–,–,0.965,1.02,1.04,0.911,0.878,–,–,–,–,–,–,–,–,–,–
NCI-H1623,–,–,–,–,–,–,–,–,–,0.815,0.858,0.827,0.826,0.77,–,–,–,–,–
Calu-6,0.91,0.947,1.01,0.878,–,–,–,–,–,0.888,0.8,0.88,0.923,0.815,0.953,0.889,0.86,0.922,0.896
EBC-1,0.57,0.737,0.699,0.414,–,–,–,–,–,0.0971,0.106,0.102,0.1,0.11,0.331,0.366,0.369,0.291,0.304
